Laboratory results taken from patent US20230219963A1, “PYRROLO[2,3-D]PYRIMIDINE DERIVATIVES” (Pfizer Inc., priority 2020, published 2023).

Target: T1, JAK3 (Homo sapiens, UniProt P52333)
T1 sequence (P52333 1-1124): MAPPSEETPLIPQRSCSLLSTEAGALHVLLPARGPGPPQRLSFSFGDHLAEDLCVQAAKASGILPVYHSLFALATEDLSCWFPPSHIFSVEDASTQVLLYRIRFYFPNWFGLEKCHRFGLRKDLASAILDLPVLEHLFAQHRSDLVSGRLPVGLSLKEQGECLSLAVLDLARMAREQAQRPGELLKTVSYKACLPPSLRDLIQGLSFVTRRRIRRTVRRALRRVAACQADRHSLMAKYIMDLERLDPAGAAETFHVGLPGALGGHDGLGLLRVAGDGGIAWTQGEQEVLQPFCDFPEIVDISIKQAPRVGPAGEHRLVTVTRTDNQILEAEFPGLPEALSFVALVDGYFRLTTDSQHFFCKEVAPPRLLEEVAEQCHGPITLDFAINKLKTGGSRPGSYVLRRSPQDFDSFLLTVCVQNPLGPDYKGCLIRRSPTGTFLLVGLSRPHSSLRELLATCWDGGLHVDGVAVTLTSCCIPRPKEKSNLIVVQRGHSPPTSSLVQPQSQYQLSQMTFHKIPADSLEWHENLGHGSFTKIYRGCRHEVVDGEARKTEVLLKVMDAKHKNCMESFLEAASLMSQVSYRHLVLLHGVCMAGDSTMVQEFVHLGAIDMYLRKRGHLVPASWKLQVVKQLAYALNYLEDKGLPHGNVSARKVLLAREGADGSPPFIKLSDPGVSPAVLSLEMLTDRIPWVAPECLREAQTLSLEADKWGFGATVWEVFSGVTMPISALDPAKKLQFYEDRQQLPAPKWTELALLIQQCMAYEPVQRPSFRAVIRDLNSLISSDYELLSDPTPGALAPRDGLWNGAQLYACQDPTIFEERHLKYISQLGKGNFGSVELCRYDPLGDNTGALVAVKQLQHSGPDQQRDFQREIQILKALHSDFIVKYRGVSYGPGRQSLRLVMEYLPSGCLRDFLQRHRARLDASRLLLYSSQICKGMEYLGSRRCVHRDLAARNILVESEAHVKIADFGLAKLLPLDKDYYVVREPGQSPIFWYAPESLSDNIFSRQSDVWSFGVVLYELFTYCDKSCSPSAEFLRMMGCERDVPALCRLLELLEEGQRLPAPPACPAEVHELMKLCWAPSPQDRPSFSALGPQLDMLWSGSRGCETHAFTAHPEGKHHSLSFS
Assay: JAK Caliper Enzyme Assay at 1 mM ATP (JAK3)
Assay type: biochemical
Procedure: JAK Caliper Enzyme Assay at 1 mM ATP
Test article was solubilized in dimethyl sulfoxide (DMSO) to a stock concentration of 30 mM. An 11-point half log dilution series was created in DMSO with a top concentration of 600 μM. […] The compound plates were diluted 1 to 60 resulting in a top final assay compound concentration of 10 μM and a 2% DMSO concentration. Test article and assay controls were added to a 384-well plate. Reaction mixtures contained 20 mM HEPES, pH 7.4, 10 mM magnesium chloride, 0.01% bovine serum albumin (BSA), 0.0005% Tween 20, 1 mM ATP and 1 μM peptide substrate. […] The assays were initiated by the addition of 20 nM JAK1, 1 nM JAK2, 1 nM JAK3 or 1 nM TYK2 enzyme and were incubated at room temperature for three hours for JAK1, 60 minutes for JAK2, 75 minutes for JAK3 or 135 minutes for TYK2. Enzyme concentrations and incubation times were optimized for each new enzyme preps and were modified slightly over time to ensure 20%-30% phosphorylation. The assays were stopped with a final concentration of 10 mM EDTA, 0.1% Coating Reagent and 100 mM HEPES, pH=7.4. The assay plates were placed on a Caliper Life Science Lab Chip 3000 (LC3000) instrument, and each well was sampled using appropriate separation conditions to measure the unphosphorylated and phosphorylated peptide.

| IC50 [µM] | SMILES |
| --- | --- |
| > 10 | C[C@H](O)CS(=O)(=O)N[C@H]1C[C@@H](N(C)c2ncnc3[nH]ccc23)C1 (single isomer, unassigned) [IA (M2)] |
| > 10 | C[C@@H](O)CS(=O)(=O)N[C@H]1C[C@@H](N(C)c2ncnc3[nH]ccc23)C1 (single isomer, unassigned) [IC (M3)] |
| > 10 | CN(c1ncnc2[nH]ccc12)[C@H]1C[C@@H](NS(=O)(=O)CCCO)C1 [IB (M1), 3-Hydroxy-N-(cis-3-(methyl(7H-pyrrolo[2,3-d]pyrimidin-4-yl)amino)cyclobutyl)propane-1-sulfonamide] |
